Target: T1, Squalene synthase (Rattus norvegicus, UniProt Q02769)
T1 construct: from tissue; host or cells: liver microsomes of Charles River CD rats fed 0.1% lovastatin for 4 days
T1 sequence (Q02769 1-416): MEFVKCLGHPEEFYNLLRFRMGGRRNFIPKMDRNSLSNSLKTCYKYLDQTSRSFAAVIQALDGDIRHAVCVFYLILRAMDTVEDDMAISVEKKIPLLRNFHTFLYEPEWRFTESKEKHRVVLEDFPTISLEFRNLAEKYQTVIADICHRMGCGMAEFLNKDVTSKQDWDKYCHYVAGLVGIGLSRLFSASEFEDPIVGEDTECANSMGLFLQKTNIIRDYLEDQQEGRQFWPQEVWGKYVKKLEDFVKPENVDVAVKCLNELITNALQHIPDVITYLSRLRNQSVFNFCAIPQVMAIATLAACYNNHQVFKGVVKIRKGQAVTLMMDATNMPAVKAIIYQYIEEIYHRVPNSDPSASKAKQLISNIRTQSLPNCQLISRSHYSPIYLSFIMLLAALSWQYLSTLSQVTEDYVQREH
Test: Squalene synthase assay (rat liver microsomes, [3H]farnesyl-pyrophosphate)
Format: biochemical
Conditions: 30° C., 20 minutes
Protocol: The intrinsic squalene synthase inhibitory activity of representative compounds of this invention was measured by the standard in vitro protocol described below:
CHARLES RIVER CD rats (120 to 150 g) were fed a diet containing 0.1% lovastatin for 4 days. The livers from these rats were homogenized in 5 volumes (mL/g) of ice cold 50 mM HEPES (4-(2-hydroxyethyl)-1-piperazine-ethanesulfonic acid), 5 mM EDTA (ethylenediaminetetraacetic acid) pH 7.5 with a Potter-Elvehjem type tissue grinder. The homogenate was centrifuged twice at 20,000× g for 15 min. at 4° C., discarding the pellet each time. The supernatant was then centrifuged at 100,000× g for 1 hr at 4° C. The resulting microsomal pellet was resuspended in a volume of the above homogenizing buffer equal to one-fifth the volume of the original homogenate. This microsomal preparation has a protein concentration of about 7 mg/mL. The microsomal suspensions were stored in aliquots at -70° C. Squalene synthase activity in these aliquots is stable for a least several months. […]
If a squalene epoxidase inhibitor (ingredient (7) above), such as Banyu's FW-439H, is not used, the assay mix is degassed under a vacuum and flushed with N2. […] Five mL of scintillation fluid was added to the heptane solution and radioactivity was determined by liquid scintillation counting.
Percent inhibition is calculated by the formula: [formula]

Structure (SMILES): CC(=O)OC(CCCC12OC(C(=O)O)C(O)(C(=O)O)C(C(=O)O)(O1)[C@H](OC(=O)CC/C=C/C(C)CCCc1ccccc1)[C@H]2O)C(C)Cc1cccs1 (stereo partly shown)
- IC50: < 0.131 µM

From patent US5294627A, “Directed biosynthesis of biologically active compounds” (Merck & Co., Inc., priority 1992, dated 1994)
